{"source": "ChEMBL document CHEMBL1201862", "about": "“PubChem BioAssay data set” (2004)", "assay_in_all_cases": "NCI anticancer screen, dose series, 48 h", "key": {"[1]": {"test_system": "DMS-114"}, "[2]": {"test_system": "DMS-273"}, "[3]": {"test_system": "KM-20L2"}, "[4]": {"test_system": "RXF 631"}, "[5]": {"test_system": "XF498"}, "[6]": {"test_system": "HOP-18"}, "[7]": {"test_system": "M19-MEL"}}, "note": "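Five compound concentrations were applied to cells in 96-well plates for 48 hours; endpoints were derived by simple linear interpolation of the resulting dose-response curve. GI50 = concentration required for 50% inhibition of growth.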 Calls of active or inactive are those of the source. Rule as the data show it: active = GI50 up to about 1.1 µM and inactive = higher."}
{"smiles": "CNC(C)Cc1ccc(O)cc1", "note": "(configuration not stated)", "values": [{"measurement": "GI50", "setting": "[1]", "value": "> 100 µM (inactive)"}, {"measurement": "GI50", "setting": "[2]", "value": "> 100 µM (inactive)"}, {"measurement": "GI50", "setting": "[3]", "value": "> 100 µM (inactive)"}, {"measurement": "GI50", "setting": "[4]", "value": "> 100 µM (inactive)"}, {"measurement": "GI50", "setting": "[5]", "value": "> 100 µM (inactive)"}, {"measurement": "GI50", "setting": "[6]", "value": "> 100 µM (inactive)"}]}
{"smiles": "CC1C=C(OC(=O)c2ccccc2)C(=O)C(n2cc(F)c(=O)n(C(=O)c3ccccc3)c2=O)O1", "note": "(configuration not stated)", "values": [{"measurement": "GI50", "setting": "[1]", "value": "42.1 µM (inactive)"}, {"measurement": "GI50", "setting": "[2]", "value": "37.4 µM (inactive)"}, {"measurement": "GI50", "setting": "[3]", "value": "32.1 µM (inactive)"}, {"measurement": "GI50", "setting": "[4]", "value": "52 µM (inactive)"}, {"measurement": "GI50", "setting": "[7]", "value": "39.3 µM (inactive)"}, {"measurement": "GI50", "setting": "[5]", "value": "21.8 µM (inactive)"}, {"measurement": "GI50", "setting": "[6]", "value": "> 100 µM (inactive)"}]}
{"smiles": "Oc1cccc2nc3cc(CN4CCOCC4)c(CN4CCOCC4)cc3nc12", "values": [{"measurement": "GI50", "setting": "[2]", "value": "54.7 µM (inactive)"}, {"measurement": "GI50", "setting": "[3]", "value": "48.9 µM (inactive)"}, {"measurement": "GI50", "setting": "[4]", "value": "56.4 µM (inactive)"}, {"measurement": "GI50", "setting": "[7]", "value": "25.9 µM (inactive)"}, {"measurement": "GI50", "setting": "[5]", "value": "> 100 µM (inactive)"}, {"measurement": "GI50", "setting": "[6]", "value": "59.7 µM (inactive)"}]}
{"smiles": "CC1NOC(=O)C1/N=N/c1ccccc1Cl", "note": "(configuration not stated)", "values": [{"measurement": "GI50", "setting": "[1]", "value": "34.7 µM (inactive)"}, {"measurement": "GI50", "setting": "[3]", "value": "68.4 µM (inactive)"}, {"measurement": "GI50", "setting": "[4]", "value": "37.1 µM (inactive)"}, {"measurement": "GI50", "setting": "[7]", "value": "23 µM (inactive)"}, {"measurement": "GI50", "setting": "[5]", "value": "27.9 µM (inactive)"}, {"measurement": "GI50", "setting": "[6]", "value": "35 µM (inactive)"}]}
{"smiles": "O=C1c2ccccc2C(=O)N1CCn1nc(-c2ccccc2)cc(-c2ccccc2)c1=O", "values": [{"measurement": "GI50", "setting": "[1]", "value": "> 100 µM (inactive)"}, {"measurement": "GI50", "setting": "[2]", "value": "49.5 µM (inactive)"}, {"measurement": "GI50", "setting": "[3]", "value": "> 100 µM (inactive)"}, {"measurement": "GI50", "setting": "[4]", "value": "27.7 µM (inactive)"}, {"measurement": "GI50", "setting": "[7]", "value": "69.3 µM (inactive)"}, {"measurement": "GI50", "setting": "[6]", "value": "42.6 µM (inactive)"}]}
{"smiles": "O=C1C(=O)N(c2cc(Cl)ccc2Cl)C(=O)C(=O)C1c1nc2ccccc2o1", "values": [{"measurement": "GI50", "setting": "[1]", "value": "> 89.1 µM (inactive)"}, {"measurement": "GI50", "setting": "[2]", "value": "> 100 µM (inactive)"}, {"measurement": "GI50", "setting": "[3]", "value": "> 100 µM (inactive)"}, {"measurement": "GI50", "setting": "[4]", "value": "> 100 µM (inactive)"}, {"measurement": "GI50", "setting": "[7]", "value": "> 100 µM (inactive)"}, {"measurement": "GI50", "setting": "[5]", "value": "> 100 µM (inactive)"}, {"measurement": "GI50", "setting": "[6]", "value": "63.1 µM (inactive)"}]}
{"smiles": "COCCOCCOCCOc1cccc2c1C(=O)c1cccc(OCCOCCOCCOC)c1C2=O", "values": [{"measurement": "GI50", "setting": "[1]", "value": "> 100 µM (inactive)"}, {"measurement": "GI50", "setting": "[2]", "value": "> 100 µM (inactive)"}, {"measurement": "GI50", "setting": "[3]", "value": "> 100 µM (inactive)"}, {"measurement": "GI50", "setting": "[4]", "value": "> 100 µM (inactive)"}, {"measurement": "GI50", "setting": "[7]", "value": "> 100 µM (inactive)"}, {"measurement": "GI50", "setting": "[5]", "value": "> 100 µM (inactive)"}, {"measurement": "GI50", "setting": "[6]", "value": "> 100 µM (inactive)"}]}
{"smiles": "C#C[C@H]1CCCCCC1O", "note": "(some centres not stated)", "values": [{"measurement": "GI50", "setting": "[1]", "value": "> 100 µM (inactive)"}, {"measurement": "GI50", "setting": "[2]", "value": "> 100 µM (inactive)"}, {"measurement": "GI50", "setting": "[3]", "value": "> 100 µM (inactive)"}, {"measurement": "GI50", "setting": "[4]", "value": "> 100 µM (inactive)"}, {"measurement": "GI50", "setting": "[7]", "value": "> 100 µM (inactive)"}, {"measurement": "GI50", "setting": "[5]", "value": "> 100 µM (inactive)"}, {"measurement": "GI50", "setting": "[6]", "value": "54.6 µM (inactive)"}]}
{"smiles": "N=c1oc2cc(O)c(O)cc2cc1C(N)=O", "values": [{"measurement": "GI50", "setting": "[1]", "value": "> 100 µM (inactive)"}, {"measurement": "GI50", "setting": "[2]", "value": "> 100 µM (inactive)"}, {"measurement": "GI50", "setting": "[3]", "value": "> 100 µM (inactive)"}, {"measurement": "GI50", "setting": "[4]", "value": "> 100 µM (inactive)"}, {"measurement": "GI50", "setting": "[7]", "value": "> 100 µM (inactive)"}, {"measurement": "GI50", "setting": "[5]", "value": "> 100 µM (inactive)"}]}
{"smiles": "O=C(/C=C/c1ccccc1O)c1cccs1", "values": [{"measurement": "GI50", "setting": "[2]", "value": "> 100 µM (inactive)"}, {"measurement": "GI50", "setting": "[3]", "value": "> 100 µM (inactive)"}, {"measurement": "GI50", "setting": "[4]", "value": "> 100 µM (inactive)"}, {"measurement": "GI50", "setting": "[7]", "value": "> 100 µM (inactive)"}, {"measurement": "GI50", "setting": "[5]", "value": "> 100 µM (inactive)"}, {"measurement": "GI50", "setting": "[6]", "value": "57.7 µM (inactive)"}]}
{"smiles": "NC(=O)c1csc(CCCCCCc2nc(C(N)=O)cs2)n1", "values": [{"measurement": "GI50", "setting": "[1]", "value": "> 71.3 µM (inactive)"}, {"measurement": "GI50", "setting": "[2]", "value": "> 100 µM (inactive)"}, {"measurement": "GI50", "setting": "[3]", "value": "> 100 µM (inactive)"}, {"measurement": "GI50", "setting": "[4]", "value": "> 100 µM (inactive)"}, {"measurement": "GI50", "setting": "[7]", "value": "18.7 µM (inactive)"}, {"measurement": "GI50", "setting": "[6]", "value": "> 100 µM (inactive)"}]}
{"smiles": "O=C1NN=C(c2ccc([N+](=O)[O-])cc2)C1n1nc(-c2ccccc2)c2ccccc2c1=O", "note": "(configuration not stated)", "values": [{"measurement": "GI50", "setting": "[2]", "value": "> 46 µM (inactive)"}, {"measurement": "GI50", "setting": "[3]", "value": "> 100 µM (inactive)"}, {"measurement": "GI50", "setting": "[4]", "value": "> 100 µM (inactive)"}, {"measurement": "GI50", "setting": "[7]", "value": "> 100 µM (inactive)"}, {"measurement": "GI50", "setting": "[5]", "value": "> 100 µM (inactive)"}, {"measurement": "GI50", "setting": "[6]", "value": "> 100 µM (inactive)"}]}
{"smiles": "COc1cc([C@@H]2c3cc4c(cc3[C@@H](NC(=O)c3cccc(N)c3)C3COC(=O)[C@@H]32)OCO4)cc(OC)c1O", "note": "(some centres not stated)", "values": [{"measurement": "GI50", "setting": "[1]", "value": "0.968 µM (active)"}, {"measurement": "GI50", "setting": "[2]", "value": "0.117 µM (active)"}, {"measurement": "GI50", "setting": "[3]", "value": "2.97 µM (inactive)"}, {"measurement": "GI50", "setting": "[4]", "value": "0.412 µM (active)"}, {"measurement": "GI50", "setting": "[7]", "value": "3.41 µM (inactive)"}, {"measurement": "GI50", "setting": "[5]", "value": "1.11 µM (active)"}]}
